{"source": "paper PMC9138505", "about": "“Small Molecule 20S Proteasome Enhancer Regulates MYC Protein Stability and Exhibits Antitumor Activity in Multiple Myeloma” (Biomedicines, 2022)", "system": "RPMI-8226 cells", "test": "Gene expression profiling, NanoString nCounter PanCancer Pathways Panel, ROSALIND analysis", "assay_type": "cell-based, human", "conditions": "RPMI-8226, TCH-165 samples 1-3", "method": "RPMI-8226 cells were treated with vehicle or TCH-165 (10 μM) for 4 h. Total RNA was obtained using the mirVana miRNA Isolation Kit, with phenol (Thermofisher Scientific; AM1560; Waltham, MA, USA). Total RNA was quantified by Qubit (Thermofisher Scientific; Q32855; Waltham, MA, USA). and gene expression was evaluated against the nCounter® PanCancer Pathways Panel^TM according to the standard NanoString protocol.\nData were analyzed by ROSALIND® [36] with a hyperscale architecture developed by ROSALIND, Inc. (San Diego, CA, USA). Normalization, fold changes and p-values were calculated using criteria provided by NanoString. ROSALIND follows the nCounter® Advanced Analysis protocol of dividing counts within a lane by the geometric mean of the normalizer probes from the same lane. Housekeeping probes to be used for normalization are selected based on the geNorm algorithm, as implemented in the NormqPCR R library. Fold changes and p-values are calculated using the fast method as described in the nCounter Advanced Analysis 2.0 User Manual. The p-value adjustment is performed using the Benjamini–Hochberg method of estimating false discovery rates (FDR). Clustering of genes for the final heatmap of differentially expressed genes was done using the PAM (Partitioning Around Medoids) method using the fpc R library. Hypergeometric distribution was used to analyze the enrichment of pathways, gene ontology, domain structure and other ontologies. The topGO R library was used to determine local similarities and dependencies between GO terms in order to perform Elim pruning correction. Several database sources were referenced for enrichment analysis, including Interpro [40], NCBI [41], MSigDB [42, 43], REACTOME [44], WikiPathways. Enrichment was calculated relative to a set of background genes relevant to the experiment.", "note": "“And” between values parts separate entries of the source, which are not always exact repeats. Identical values can stand only once.", "data": [{"smiles": "CCOC(=O)[C@]1(c2ccccc2)N=C(c2ccc(OC)cc2)N(Cc2ccccc2)[C@@H]1c1ccc(NCc2ccccc2)cc1", "note": "[TCH-165]", "values": [{"measurement": "PDGFA normalized gene expression", "result": "6.283 and 6.012 and 6.0068"}, {"measurement": "PDGFB normalized gene expression", "result": "4.649 and 4.855 and 4.437"}, {"measurement": "PDGFRA normalized gene expression", "result": "4.401 and 4.3768 and 3.876"}, {"measurement": "PDGFRB normalized gene expression", "result": "4.86 and 4.614 and 4.483"}, {"measurement": "PGF normalized gene expression", "result": "5.308 and 4.817 and 4.238"}, {"measurement": "PIK3CA normalized gene expression", "result": "10.0553 and 10.0309 and 10.0578"}, {"measurement": "PIK3CB normalized gene expression", "result": "6.955 and 6.836 and 6.778"}, {"measurement": "PIK3CD normalized gene expression", "result": "5.445 and 5.636 and 4.975"}, {"measurement": "PIK3CG normalized gene expression", "result": "8.477 and 8.424 and 8.357"}, {"measurement": "PIK3R1 normalized gene expression", "result": "7.74 and 7.729 and 7.668"}, {"measurement": "PIK3R3 normalized gene expression", "result": "10.4707 and 10.3784 and 10.3886"}, {"measurement": "PIK3R5 normalized gene expression", "result": "8.581 and 8.361 and 8.483"}, {"measurement": "PIM1 normalized gene expression", "result": "9.677 and 9.621 and 9.503"}, {"measurement": "PITX2 normalized gene expression", "result": "3.723 and 3.817 and 3.39"}, {"measurement": "PKMYT1 normalized gene expression", "result": "9.448 and 9.494 and 9.482"}, {"measurement": "PLA1A normalized gene expression", "result": "4.571 and 4.7789 and 4.5707"}, {"measurement": "PLA2G2A normalized gene expression", "result": "5.723 and 5.0613 and 5.549"}, {"measurement": "PLA2G3 normalized gene expression", "result": "5.955 and 5.7789 and 5.549"}, {"measurement": "PLA2G4A normalized gene expression", "result": "9.821 and 9.8479 and 9.947"}, {"measurement": "PLA2G4C normalized gene expression", "result": "3.986 and 4.324 and 4.0682"}, {"measurement": "PLA2G5 normalized gene expression", "result": "4.208 and 4.855 and 5.0068"}, {"measurement": "PLA2G10 normalized gene expression", "result": "4.793 and 4.569 and 4.9095"}, {"measurement": "PLAT normalized gene expression", "result": "5.101 and 4.855 and 4.805"}, {"measurement": "PLAU normalized gene expression", "result": "5.758 and 5.452 and 5.461"}, {"measurement": "PLCB1 normalized gene expression", "result": "7.331 and 7.169 and 7.1906"}, {"measurement": "PLCB4 normalized gene expression", "result": "8.221 and 8.1619 and 8.141"}, {"measurement": "PLCE1 normalized gene expression", "result": "3.571 and 3.962 and 3.291"}, {"measurement": "PLCG2 normalized gene expression", "result": "7.802 and 7.657 and 7.688"}, {"measurement": "PLD1 normalized gene expression", "result": "4.723 and 4.524 and 4.0068"}, {"measurement": "PML normalized gene expression", "result": "9.305 and 9.103 and 9.111"}, {"measurement": "POLB normalized gene expression", "result": "8.277 and 8.166 and 8.094"}, {"measurement": "POLD1 normalized gene expression", "result": "6.955 and 6.97 and 7.225"}, {"measurement": "POLE2 normalized gene expression", "result": "7.876 and 7.784 and 7.712"}, {"measurement": "POLR2D normalized gene expression", "result": "10.3534 and 10.1749 and 10.2456"}, {"measurement": "POLR2H normalized gene expression", "result": "9.625 and 9.653 and 9.593"}, {"measurement": "POLR2J normalized gene expression", "result": "8.023 and 8.1988 and 7.922"}, {"measurement": "PPARG normalized gene expression", "result": "5.308 and 4.093 and 4.841"}, {"measurement": "PPARGC1A normalized gene expression", "result": "5.156 and 4.855 and 4.5707"}, {"measurement": "PPP2CB normalized gene expression", "result": "9.355 and 9.581 and 9.539"}, {"measurement": "PPP2R1A normalized gene expression", "result": "10.9153 and 10.8543 and 10.8588"}, {"measurement": "PPP2R2B normalized gene expression", "result": "5.208 and 3.891 and 3.876"}, {"measurement": "PPP2R2C normalized gene expression", "result": "4.401 and 4.154 and 4.653"}, {"measurement": "PPP3CA normalized gene expression", "result": "8.9359 and 8.866 and 8.858"}, {"measurement": "PPP3CB normalized gene expression", "result": "6.793 and 6.5 and 6.673"}, {"measurement": "PPP3CC normalized gene expression", "result": "7.784 and 7.44 and 7.5547"}, {"measurement": "PPP3R1 normalized gene expression", "result": "12.1844 and 12.0743 and 12.0585"}, {"measurement": "PRDM1 normalized gene expression", "result": "9.955 and 9.965 and 9.796"}, {"measurement": "PRKAA2 normalized gene expression", "result": "5.445 and 4.927 and 5.238"}, {"measurement": "PRKACA normalized gene expression", "result": "10.3765 and 10.3832 and 10.3727"}, {"measurement": "PRKACB normalized gene expression", "result": "9.149 and 8.936 and 8.955"}, {"measurement": "PRKACG normalized gene expression", "result": "5.955 and 4.996 and 4.975"}, {"measurement": "PRKAR1B normalized gene expression", "result": "7.319 and 7.093 and 7.231"}, {"measurement": "PRKAR2A normalized gene expression", "result": "10.8995 and 10.8368 and 10.7359"}, {"measurement": "PRKAR2B normalized gene expression", "result": "4.924 and 5.5 and 5.291"}, {"measurement": "PRKCA normalized gene expression", "result": "5.61 and 5.739 and 5.858"}, {"measurement": "PRKCB normalized gene expression", "result": "5.101 and 5.5 and 5.1271"}, {"measurement": "PRKCG normalized gene expression", "result": "3.208 and 3.154 and 2.805"}, {"measurement": "PRKDC normalized gene expression", "result": "10.6509 and 10.6549 and 10.5707"}, {"measurement": "PRKX normalized gene expression", "result": "6.924 and 6.699 and 6.769"}, {"measurement": "PRL normalized gene expression", "result": "5.156 and 4.7789 and 4.483"}, {"measurement": "PRLR normalized gene expression", "result": "4.401 and 4.324 and 4.483"}, {"measurement": "PROM1 normalized gene expression", "result": "5.488 and 4.817 and 5.1271"}, {"measurement": "PTCH1 normalized gene expression", "result": "6.423 and 6.1393 and 6.303"}, {"measurement": "PTEN normalized gene expression", "result": "10.0245 and 10.0523 and 10.0068"}, {"measurement": "PTPN11 normalized gene expression", "result": "10.4091 and 10.3872 and 10.2825"}, {"measurement": "PTPRR normalized gene expression", "result": "5.156 and 5.27 and 4.876"}, {"measurement": "PTTG2 normalized gene expression", "result": "10.7067 and 10.7173 and 10.7103"}, {"measurement": "RAC1 normalized gene expression", "result": "10.809 and 10.6987 and 10.6841"}, {"measurement": "RAC2 normalized gene expression", "result": "9.175 and 9.2187 and 9.226"}, {"measurement": "RAC3 normalized gene expression", "result": "7.412 and 7.085 and 7.42"}, {"measurement": "RAD21 normalized gene expression", "result": "12.3086 and 12.2658 and 12.2586"}, {"measurement": "RAD50 normalized gene expression", "result": "8.5605 and 8.589 and 8.653"}, {"measurement": "RAD51 normalized gene expression", "result": "8.142 and 8.041 and 8.102"}, {"measurement": "RAD52 normalized gene expression", "result": "7.767 and 7.625 and 7.698"}, {"measurement": "RAF1 normalized gene expression", "result": "10.0005 and 9.906 and 9.965"}, {"measurement": "RASA4 normalized gene expression", "result": "8.175 and 8.284 (2×)"}, {"measurement": "RASAL1 normalized gene expression", "result": "7.884 and 7.864 and 8.034"}, {"measurement": "RASGRF1 normalized gene expression", "result": "5.355 and 5.27 and 5.1271"}, {"measurement": "RASGRF2 normalized gene expression", "result": "4.401 and 4.154 and 4.39"}, {"measurement": "RASGRP1 normalized gene expression", "result": "3.571 and 3.27 and 2.805"}, {"measurement": "RASGRP2 normalized gene expression", "result": "5.355 and 4.7789 and 5.184"}, {"measurement": "RB1 normalized gene expression", "result": "10.4258 and 10.2516 and 10.3605"}, {"measurement": "RBX1 normalized gene expression", "result": "11.212 and 11.2858 and 11.2821"}, {"measurement": "RELA normalized gene expression", "result": "9.023 and 9.033 and 8.932"}, {"measurement": "RELN normalized gene expression", "result": "3.208 and 3.154 and 2.653"}, {"measurement": "RET normalized gene expression", "result": "4.488 and 3.154 and 4.1271"}, {"measurement": "RFC3 normalized gene expression", "result": "10.5818 and 10.4756 and 10.5331"}, {"measurement": "RFC4 normalized gene expression", "result": "10.5805 and 10.6642 and 10.6099"}, {"measurement": "RHOA normalized gene expression", "result": "10.324 and 10.1814 and 10.1759"}, {"measurement": "RIN1 normalized gene expression", "result": "5.308 and 5.324 and 5.211"}, {"measurement": "RNF43 normalized gene expression", "result": "5.044 and 4.569 and 4.528"}]}]}
